PubChem BioAssay (NCI)
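A five-concentration, 48-hour dose response in 96-well plates underlies each endpoint, interpolated linearly between surrounding concentrations. TGI marks complete inhibition of growth.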

Assays:
Assay in all cases: NCI tumour cell line growth inhibition, 48 h
SNB-19 CNS = system: SNB-19 CNS
EKVX NSCLC = system: EKVX NSCLC
CAKI-1 renal = system: CAKI-1 renal
MDA-MB-435 = system: MDA-MB-435
SNB-75 CNS = system: SNB-75 CNS
NCI-H23 lung = system: NCI-H23 lung
CCRF-CEM leukemia = system: CCRF-CEM leukemia
IGROV1 ovarian = system: IGROV1 ovarian
SK-MEL-2 melanoma = system: SK-MEL-2 melanoma
UACC-62 melanoma = system: UACC-62 melanoma
RPMI-8226 leukemia = system: RPMI-8226 leukemia
SN12C renal = system: SN12C renal
HOP-92 NSCLC = system: HOP-92 NSCLC
HCT-15 colon = system: HCT-15 colon
RXF 393 renal = system: RXF 393 renal
LOX IMVI melanoma = system: LOX IMVI melanoma
UO-31 renal = system: UO-31 renal
PC-3 prostate = system: PC-3 prostate
NCI-H460 lung = system: NCI-H460 lung
A549 NSCLC = system: A549 NSCLC
HCT-116 colon = system: HCT-116 colon
786-0 renal = system: 786-0 renal
KM12 colon = system: KM12 colon
BT-549 breast = system: BT-549 breast
MDA-N = system: MDA-N
SR leukemia = system: SR leukemia
HL-60(TB) leukemia = system: HL-60(TB) leukemia
OVCAR-8 ovarian = system: OVCAR-8 ovarian
HCC-2998 colon = system: HCC-2998 colon
HT29 colon = system: HT29 colon
MOLT-4 leukemia = system: MOLT-4 leukemia
SF-295 CNS = system: SF-295 CNS
SF-539 CNS = system: SF-539 CNS
COLO 205 colon = system: COLO 205 colon
U251 CNS = system: U251 CNS
HS 578T breast = system: HS 578T breast
TK-10 renal = system: TK-10 renal
MALME-3M melanoma = system: MALME-3M melanoma
SK-OV-3 ovarian = system: SK-OV-3 ovarian
HOP-62 NSCLC = system: HOP-62 NSCLC
MCF7 breast = system: MCF7 breast
DU-145 prostate = system: DU-145 prostate
UACC-257 melanoma = system: UACC-257 melanoma
OVCAR-3 ovarian = system: OVCAR-3 ovarian
SK-MEL-28 melanoma = system: SK-MEL-28 melanoma
ACHN renal = system: ACHN renal
NCI/ADR-RES ovarian = system: NCI/ADR-RES ovarian
SW-620 colon = system: SW-620 colon
OVCAR-5 ovarian = system: OVCAR-5 ovarian
NCI-H226 lung = system: NCI-H226 lung
T-47D breast = system: T-47D breast
MDA-MB-231 breast = system: MDA-MB-231 breast
A498 renal = system: A498 renal
M14 melanoma = system: M14 melanoma
SF-268 CNS = system: SF-268 CNS
K-562 leukemia = system: K-562 leukemia
NCI-H522 lung = system: NCI-H522 lung
SK-MEL-5 melanoma = system: SK-MEL-5 melanoma
OVCAR-4 ovarian = system: OVCAR-4 ovarian

Measured: TGI

CCOC(NC(=O)CC)(C(F)(F)F)C(F)(F)F
61.2 µM: RXF 393 renal
not listed: OVCAR-4 ovarian
> 100 µM: all other assays above

Cc1ncc(-c2nnnn2-c2ccccc2)c(C(=O)O)n1
not listed: OVCAR-4 ovarian
> 100 µM: all other assays above

O=C(NCc1ccccc1)c1cc2ccccc2oc1=Nc1ccccc1F
24.1 µM: 786-0 renal
47.3 µM: MDA-MB-231 breast
47.5 µM: SK-OV-3 ovarian
31.2 µM: OVCAR-8 ovarian
36.1 µM: UO-31 renal
61.5 µM: HCC-2998 colon
92.2 µM: NCI-H226 lung
88.7 µM: A549 NSCLC
27.9 µM: CAKI-1 renal
39.8 µM: HOP-62 NSCLC
36.7 µM: TK-10 renal
57.5 µM: NCI-H23 lung
37.3 µM: LOX IMVI melanoma
84.5 µM: RXF 393 renal
58.3 µM: ACHN renal
76.7 µM: OVCAR-4 ovarian
74.4 µM: COLO 205 colon
96.3 µM: SN12C renal
51.9 µM: SK-MEL-5 melanoma
45.5 µM: SNB-75 CNS
not listed: SF-539 CNS
> 100 µM: all other assays above

CN(C)c1ccc(/C=C2\C[C@H]3[C@@H]4CCc5cc(OCCN6CCCC6)ccc5[C@H]4CC[C@]3(C)[C@H]2O)cc1
30.9 µM: OVCAR-3 ovarian
> 63.8 µM: RPMI-8226 leukemia
30.2 µM: NCI-H460 lung
> 25.7 µM: HT29 colon
61.7 µM: SF-268 CNS
46 µM: MOLT-4 leukemia
> 37.5 µM: K-562 leukemia
11.6 µM: TK-10 renal
48.9 µM: PC-3 prostate
46.3 µM: MDA-N
41.8 µM: EKVX NSCLC
53.6 µM: NCI/ADR-RES ovarian
> 30.2 µM: MALME-3M melanoma
22.9 µM: SK-MEL-5 melanoma
30.4 µM: SF-295 CNS
14.5 µM: HCC-2998 colon
34.8 µM: SK-MEL-2 melanoma
8.78 µM: HCT-116 colon
39 µM: MDA-MB-435
16.8 µM: UO-31 renal
22 µM: SF-539 CNS
10.2 µM: SR leukemia
47.5 µM: T-47D breast
> 100 µM: HCT-15 colon | LOX IMVI melanoma
31.1 µM: BT-549 breast | OVCAR-5 ovarian
26.2 µM: DU-145 prostate
20.3 µM: A549 NSCLC
5.99 µM: CCRF-CEM leukemia
> 61.9 µM: HS 578T breast
39.7 µM: IGROV1 ovarian
28 µM: SNB-75 CNS
33.9 µM: RXF 393 renal
42.9 µM: ACHN renal
30 µM: CAKI-1 renal
17.6 µM: U251 CNS
35.5 µM: HOP-62 NSCLC
19.5 µM: UACC-257 melanoma
47.4 µM: SN12C renal
30.1 µM: MCF7 breast
43.3 µM: HL-60(TB) leukemia
18.9 µM: OVCAR-8 ovarian
16.4 µM: MDA-MB-231 breast
37.4 µM: NCI-H226 lung
24.7 µM: HOP-92 NSCLC
39.5 µM: UACC-62 melanoma
7.69 µM: NCI-H522 lung
46.1 µM: SNB-19 CNS
27.9 µM: COLO 205 colon
5.05 µM: 786-0 renal
> 60.2 µM: KM12 colon
31.4 µM: NCI-H23 lung
> 58.8 µM: OVCAR-4 ovarian
11.9 µM: SK-MEL-28 melanoma
31.7 µM: SK-OV-3 ovarian
34.9 µM: A498 renal
18.6 µM: SW-620 colon

Cc1cc(S(=O)(=O)Nc2n[nH]c(-c3ccc(Cl)cn3)n2)c(S)cc1Cl
92.5 µM: SNB-19 CNS
87.2 µM: HS 578T breast
99.4 µM: UO-31 renal
not listed: NCI-H23 lung | CCRF-CEM leukemia | SF-295 CNS | K-562 leukemia
> 100 µM: all other assays above
